In PubChem BioAssay (NCI):
“And” between values parts separate entries of the source, which are not always exact repeats. Equal values may be shown once.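 These data come from cells grown in 96-well plates and exposed to compound for 48 hours at five concentrations. GI50 is the concentration that inhibits growth by half. TGI marks complete inhibition of growth.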

Key:
Assay in all cases: growth of human tumour cells (NCI), 48 h
[1] = system: ACHN renal
[2] = system: DU-145 prostate
[3] = system: HOP-62 NSCLC
[4] = system: HOP-92 NSCLC
[5] = system: MDA-MB-231 breast
[6] = system: NCI-H226 lung
[7] = system: NCI/ADR-RES ovarian
[8] = system: PC-3 prostate
[9] = system: SW-620 colon
[10] = system: T-47D breast

| SMILES | TGI [1] [µM] | TGI [2] [µM] | TGI [3] | TGI [4] [µM] | TGI [5] [µM] | TGI [6] | TGI [7] [µM] | TGI [8] [µM] | TGI [9] | TGI [10] [µM] | GI50 [1] | GI50 [2] [µM] | GI50 [3] | GI50 [4] | GI50 [5] [µM] | GI50 [6] | GI50 [8] [µM] | GI50 [9] | GI50 [10] [µM] | GI50 [7] [µM] |
| --- | --- | --- | --- | --- | --- | --- | --- | --- | --- | --- | --- | --- | --- | --- | --- | --- | --- | --- | --- | --- |
| COc1ccc(CC(N)c2ccc(OC)cc2)cc1 (stereo not drawn) | > 100 | > 100 | > 100 µM | > 100 | > 100 | > 100 µM | > 100 | > 100 | > 100 µM | > 100 | – | – | – | – | – | – | – | – | – | – |
| CCNC(=S)N=Nc1c(O)[nH]c2ccc([N+](=O)[O-])cc12 | > 100 | > 100 | > 100 µM | > 100 | > 100 | > 100 µM | > 100 | > 100 | > 100 µM | > 100 | – | – | – | – | – | – | – | – | – | – |
| CCOP(=O)(/C=C\n1cc(C)c(=O)[nH]c1=O)OCC | > 100 | > 100 | > 100 µM | – | > 100 | > 100 µM | > 100 | > 100 | > 100 µM | > 100 | – | – | – | – | – | – | – | – | – | – |
| Cc1ccc(S(=O)(=O)n2c3ccc(Br)cc3c3nc4ccccc4nc32)cc1 | > 100 | > 100 | > 100 µM | > 100 | > 100 | 0.879 µM | > 100 | > 100 | > 100 µM | > 100 | – | – | – | – | – | – | – | – | – | – |
| [Cl][Sn]([c]1ccccc1)([c]1ccccc1)[c]1ccccc1 | – | 0.428 | 0.467 µM and 0.188 µM and 0.287 µM | – | 0.54 | 0.423 µM and 0.484 µM and 0.433 µM | – | 1.02 | 0.104 µM and 0.0229 µM | 0.412 | 0.213 µM and 0.034 µM and 0.0215 µM | 0.21 | 0.21 µM and 0.0575 µM and 0.132 µM | 0.0939 µM and 0.122 µM and 0.0139 µM | 0.216 | 0.194 µM and 0.271 µM and 0.278 µM | 0.327 | 0.0303 µM and < 0.01 µM | 0.171 | – |
| OCCO/N=C1\C(c2c(O)[nH]c3ccccc23)=Nc2ccccc21 | > 100 | > 100 | > 100 µM | > 100 | – | > 100 µM | > 100 | > 100 | > 100 µM | > 100 | – | – | – | – | – | – | – | – | – | – |
| O=c1cc(N2CCCC2)[nH]c(=O)n1Cc1ccccc1 | > 100 | > 100 | > 100 µM | > 100 | > 100 | > 100 µM | > 100 | > 100 | > 100 µM | – | – | – | – | – | – | – | – | – | – | – |
| COC(=O)C1CCC(=S)N1C(=O)c1ccccc1 (stereo not drawn) | > 100 | > 100 | > 100 µM | > 100 | > 100 | – | > 100 | > 100 | – | > 100 | – | – | – | – | – | – | – | – | – | – |
| Cc1csc(NC23CC4CC(CC(C4)C2)C3)[n+]1C(P(=O)([O-])O)P(=O)(O)O (stereo not drawn) | > 100 | > 100 | > 100 µM | > 100 | > 100 | > 100 µM | > 100 | > 100 | > 100 µM | – | – | – | – | – | – | – | – | – | – | – |
| CCOc1ccc(N/C(=C(/C(Cl)=C(/Cl)N(CC)CC)[N+](=O)[O-])n2nnc3ccccc32)cc1 | 47.9 | – | > 100 µM | – | 25.2 | > 100 µM | 53.9 | 41.9 | 27.3 µM | 28.9 | – | – | – | – | – | – | – | – | – | – |
| C=C/C(C)=C\CC1[C@](C)(O)CC[C@H]2C(C)(C)C(=O)CC[C@]12C (stereo partly drawn) | > 100 | > 100 | – | > 100 | > 100 | > 100 µM | > 100 | > 100 | > 100 µM | – | – | – | – | – | – | – | – | – | – | – |
| CCNCCCn1c2c(c3ccc(Cl)cc3c1=O)C(=O)c1cc(OC)cnc1-2 | 1.35 | 1.56 | 1.43 µM | 27.2 | 3.23 | 5.04 µM | 2.53 | – | 1.76 µM | 1.58 | 0.154 µM | 0.208 | 0.122 µM | 3.01 µM | 1.5 | 1.4 µM | – | 0.0316 µM | 0.161 | 0.282 |
| O=[N+]([O-])c1ccc2sc(C=Nc3cnccn3)cc2c1 | > 100 | > 100 | > 100 µM | > 100 | > 100 | – | > 100 | > 100 | > 100 µM | 28 | – | – | – | – | – | – | – | – | – | – |
| COc1ccc2c3c1OC1C(=O)C=CC4(CC2)N(C)CCC314 (stereo not drawn) | 73.9 | > 100 | > 100 µM | > 100 | > 100 | – | > 100 | > 100 | > 100 µM | > 100 | – | – | – | – | – | – | – | – | – | – |
| O=C1CCCCC/C1=C\c1ccc([N+](=O)[O-])cc1 | 55 | > 100 | > 100 µM | – | 37.9 | – | > 100 | > 100 | > 100 µM | > 100 | – | – | – | – | – | – | – | – | – | – |
| Nc1ccc(S(=O)(=O)c2ccc(NCN3C(=O)NC(=O)C(=O)C3=O)cc2)cc1 | > 100 | – | > 100 µM | > 100 | > 100 | > 100 µM | > 100 | > 100 | > 100 µM | > 100 | – | – | – | – | – | – | – | – | – | – |
| C/C=C/c1cc(=O)c([C@@H]2OC(=O)c3cc(OC)cc(OC)c32)co1 | > 100 | – | > 100 µM | > 100 | – | > 100 µM | – | – | > 100 µM | – | – | – | – | – | – | – | – | – | – | – |
| Cc1cc(S(=O)(=O)N/C(=C(\C#N)C(=O)c2ccc(Cl)cc2)[n+]2ccc(N(C)C)cc2)c([S-])cc1Cl | > 100 | > 100 | > 100 µM | – | > 100 | > 100 µM | > 100 | > 100 | – | > 100 | – | – | – | – | – | – | – | – | – | – |
| O=S(=O)(c1ccc(NC2=NC(c3ccc(O)cc3)(c3ccccc3O)c3ccccc32)cc1)c1ccc(NC2=NC(c3ccc(O)cc3)(c3ccccc3O)c3ccccc32)cc1 (stereo not drawn) | > 100 | > 35.4 | > 100 µM | > 70.6 | > 44.6 | 19.2 µM | > 100 | > 58.7 | > 100 µM | – | – | – | – | – | – | – | – | – | – | – |
| O=C(NCCCCCCCCCCCCNC(=O)Nc1cccc2ccccc12)Nc1cccc2ccccc12 | 27.1 | 70.9 | 20.1 µM | 25.9 | 35.9 | – | 60.6 | 29.7 | 33.1 µM | 36.7 | – | – | – | – | – | – | – | – | – | – |
| NC(=O)NNc1nc(-c2ccccc2)cs1 | > 100 | > 100 | > 100 µM | – | > 100 | > 100 µM | > 100 | > 100 | > 100 µM | > 100 | – | – | – | – | – | – | – | – | – | – |
| CC(=O)OCC1OC(SC2=N/C(=C\c3ccc(Br)s3)C(=O)N2CN2CCOCC2)C(OC(C)=O)C(OC(C)=O)C1OC(C)=O (stereo not drawn) | 46.2 | 30.6 | 56.6 µM | – | > 100 | 32.5 µM | 44 | 54.5 | 38.9 µM | 91.8 | – | – | – | – | – | – | – | – | – | – |
